Entries after “also recorded” stand apart in the source; their conditions may differ.
System: male Sprague-Dawley rats
Assay: Carrageenan model of inflammatory pain, paw-pressure vocalization test (Randall-Selitto)
Assay type: in vivo, rat
Procedure: In order to show the efficacy of the gas mixture according to the invention in the prevention of post-traumatic hyperalgesia, a model of inflammatory pain was used in rats, namely male Sprague-Dawley rats, in the context of preclinical studies.
An inflammatory product, carrageenan (0.2 ml of saline solution with 1% of carrageenan), was injected subcutaneously into the sole of the hind paw of a rat.
Two xenon concentrations by volume were tested, namely: • a ternary gas mixture made up of 25% Xe+25% N2+50% O2, and • a binary gas mixture made up of 50% Xe+50% O2.
The nociceptive threshold, i.e. the pain threshold, was evaluated using the paw-pressure vocalization test (Randall-Selitto), in which increasing pressures (measured in grams) are applied to the hind paw of the rat until the rat squeaks.
More specifically, on Day 0 (D0), the inflammatory product, i.e. the carrageenan (Car), was injected into a hind paw of the rats.
The exposure of the rats to the gases by inhalation begins 1 h 45 after the injection of Car and lasts for 1 h 45. The nociceptive threshold is evaluated 1 h 30, 2 h 30, 3 h 00, 3 h 30 and 4 h 30 after the injection of Car and then once a day until a return to the basal nociceptive threshold.

SMILES: [Xe] [xenon]
- analgesic effect during administration, 50% content compared with 25% content (50% Xe+50% O2 (FIG. 2A) versus 25% Xe+25% N2+50% O2 (FIG. 1A), inflamed paw): more effective
- analgesic effect during administration (nociceptive threshold) (inhaled xenon 25% or 50% by volume, exposure 1 h 45 starting 1 h 45 after carrageenan, inflamed paw): has an analgesic effect
- duration of delayed hyperalgesia on the inflamed paw (xenon at 25% (25% Xe+25% N2+50% O2) inhaled 1 h 45, control air/Car 4 days, FIG. 1A): 2 days
- delayed hyperalgesia on the inflamed paw (xenon at 50% (50% Xe+50% O2) inhaled 1 h 45, FIG. 2A): totally prevents
- delayed hyperalgesia on the non-inflamed paw (xenon at 50% (50% Xe+50% O2) inhaled 1 h 45, FIG. 2B): totally prevents; also recorded: completely prevents
